This passage reports IC50, AUC(0-t) and Cmax results from patent US20240109898A1, “SUBSTITUTED PYRAZOLO[1,5-A]PYRIMIDINE-7-AMINE DERIVATIVES, COMPOSITIONS AND PHARMACEUTICAL USES THEREOF” (SHANGHAI HAIYAN PHARMACEUTICAL TECHNOLOGY CO., LTD., priority 2021, published 2024).

One data set addresses CDK2/CycA (Homo sapiens (Human), UniProt P24941). Put plainly: LANCE Ultra kinase activity inhibition assay, CDK2/CycA. It is filed as biochemical. To be noted: ATP 10 μM, highest compound concentration 10 μM. The text has this: (§1) In the following LANCE Ultra test methods, kinase reagents were purchased from Carna Bioscience, reaction substrates and detection reagents were purchased from PerkinElmer, and the remaining reagents were purchased from Thermo scientific.
(§2) The assay for each kinase includes three test groups, i.e., a background group (Blank), a non-inhibition group (PC), and compound testing group (Test). The components included in each test group were as follows:
(§3) Working concentrations of the respective components of the Test groups in different kinase reactions were as follows.
(§4) Compounds: 10 mM of the compound to be tested was dissolved at room temperature and diluted with DMSO to gradient concentrations, followed by diluting with deionized water to prepare a 4× working solution of the compound, and the content of DMSO was 2%. The highest concentration of compound used in the CDK1 and CDK2 assays was 10 μM, and that in CDK9 assay was 1 μM.
(§5) The working concentration of DMSO in the reaction was 0.5%.
(§6) The above-mentioned components, after being mixed, were placed on a shaker and incubated at room temperature in the dark for 1 h. 10 μL of test solution was then added to all test groups (including Blank, PC and Test groups).
(§7) After the test solution was added, the solution was placed on a shaker and continually incubated at room temperature for 1 h in the dark. […] The inhibition rate was calculated as below.
(§8) 2. Inhibition rate=(PCRatio-TestRatio)/(PCRatio-BlankRatio)*100%; and
(§9) 3. XLFIT 5.0 software (IDBS, UK) was used to fit a graph by using the logarithmic value of the compound concentration as the X-axis and the inhibition rater as the Y-axis, and a four-parameter model was used to calculate the half inhibitory concentration IC50 of the compound.
(In general: In TR-FRET formats the signal depends on donor and acceptor labels being close together.)

The target in another data set is CDK1/CycB (Homo sapiens (Human), UniProt P06493). Put plainly: LANCE Ultra kinase activity inhibition assay, CDK1/CycB. In kind it is biochemical. Particulars: ATP 4 μM, highest compound concentration 10 μM.
Text: as §1, §2, §3, §4, §5, §6, §7, §8, §9

Data set [1] in a line: In vivo pharmacokinetics in mice. To be noted: mouse, plasma, po, male ICR mice, intragastric 10 mg/kg; for AUC(0-t): read-out: Area under the oral curve AUC0-t; for Cmax: read-out: Oral maximum plasma concentration Cmax(ng/mL). The method, then:
To investigate the pharmacokinetic behaviors of the compounds according to the present disclosure in mice and evaluate the pharmacokinetic characteristics thereof, the plasma concentrations of the compounds according to the present disclosure in mice at different time points after intravenous injection and intragastric administration of the compounds were determined by LC/MS/MS.
Experimental Protocol: • Experimental animals: healthy adult male ICR mice (12 mice with body weight of 30-40 g, free water and diet for intravenous injection group, and fasted overnight for intragastric administration group, free water and diet after 4 hours of administration) were provided by Beijing Vital River Laboratory Animal Co. LTD; • Administration route and dosage: the ICR mice were administrated intravenously via the tail vein (2 mg/kg, 5% DMSO, pH 4.5 20% Captisol) and intragastrically (10 mg/kg, 5% DMSO, pH 4.5 20% Captisol).
Blood sample collection: prior to the administration, animals satisfying the experimental requirements were selected, weighed and marked. Before collecting blood samples, the mice were tied together, and the blood of each administrated mouse was collected at the respective scheduled time points (for the intravenous administration, the blood was collected at 0.083 h, 0.25 h, 0.5 h, 1 h, 2 h, 4 h, 6 h, 7.5 h, and 24 h after the administration, respectively, for a total of 9 time points; for the intragastric administration, the blood was collected at 0.083 h, 0.25 h, 0.5 h, 1 h, 2 h, 4 h, 6 h, 7.5 h, and 24 h after the administration, respectively, for a total of 9 time points), about 100 μL of blood was collected from orbit. The blood was transferred to a 1.5 mL tube, which was pre-filled with K2EDTA, centrifuged for 4 minutes (8000 rpm, 4° C.), and the plasma removed within 15 minutes, which all the steps were finished in 15 minutes after the collection of blood samples. All samples were stored in −20° C. refrigerator before sample analysis. The drug concentrations were determined using the LC/MS/MS method, the pharmacokinetic parameters of the compounds of some examples of the present disclosure in mice at the same dosage and administration routes were lists in Table 3: […]

The next data set concerns the target CDK9/CycT (Homo sapiens (Human), UniProt P50750). Briefly: LANCE Ultra kinase activity inhibition assay, CDK9/CycT. In kind it is biochemical. To be noted: ATP 10 μM, highest compound concentration 1 μM. The method, then: as §1
The inhibiting effects on the kinase activity of CDK1/CycB (Carna bioscience, #04-102), CDK2/CycA (Carna bioscience, #04-103) and CDK9/CycT (Carna bioscience, #04-110) were determined by using LANCE Ultra method.
The kinase activity test was performed using a system (10 μL) containing the following components: substrate diluent prepared by mixing CDK kinase diluent, Ulight-Myelic basic protein (Perkin Elmer, #TRF-0109, hereinafter referred to as U-MBP) and ATP (Thermo scientific, #PV3227); and the compounds (i.e., analyte) prepared in the examples of the present disclosure. The assay for each kinase includes three test groups, i.e., a background group (Blank), a non-inhibition group (PC), and compound testing group (Test). The components included in each test group were as follows:
as §3, §4
1.33×reaction buffer: the components include 26.7 mM of MOPS, 6.67 mM of MgCl2, and 0.0133% Tween-20, which were stored in a 4° C. refrigerator and protected from light after preparation. Freshly prepared DTT was added to a final concentration of 5.33 mM before use.
as §5, §6
10 μL of test solution contains the following components: 16 mM of EDTA (Thermo scientific, #15575), 1 nM of phosphorylated U-MBP protein antibody (Perkin Elmer, #TRF-0201), and 1× detection damping fluid (Perkin Elmer, #CR97-100).
After the test solution was added, the solution was placed on a shaker and continually incubated at room temperature for 1 h in the dark. At the end of incubation, Victor X5 fluorescence microplate reader of Perkin Elmer was used to read the signal; the wavelength of excitation light was 320 nm, and the wavelengths of emission light were 615 nm and 665 nm. The inhibition rate was calculated as below.
1. For all groups, a value of 665 nm/615 nm (hereinafter referred to as Ratio) was calculated, and an inhibition rate was calculated based on the Ratio of each group;
as §8, §9

Chain of CDK1/CycB (P06493 whole entry): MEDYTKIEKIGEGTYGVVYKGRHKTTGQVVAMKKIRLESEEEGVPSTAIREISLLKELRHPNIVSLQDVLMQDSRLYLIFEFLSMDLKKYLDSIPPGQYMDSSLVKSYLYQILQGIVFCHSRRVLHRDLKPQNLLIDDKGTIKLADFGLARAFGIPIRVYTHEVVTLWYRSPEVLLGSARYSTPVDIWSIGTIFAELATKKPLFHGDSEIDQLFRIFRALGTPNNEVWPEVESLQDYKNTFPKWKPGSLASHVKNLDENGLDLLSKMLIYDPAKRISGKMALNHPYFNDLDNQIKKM
Chain of CDK1/CycB (P14635 whole entry partner): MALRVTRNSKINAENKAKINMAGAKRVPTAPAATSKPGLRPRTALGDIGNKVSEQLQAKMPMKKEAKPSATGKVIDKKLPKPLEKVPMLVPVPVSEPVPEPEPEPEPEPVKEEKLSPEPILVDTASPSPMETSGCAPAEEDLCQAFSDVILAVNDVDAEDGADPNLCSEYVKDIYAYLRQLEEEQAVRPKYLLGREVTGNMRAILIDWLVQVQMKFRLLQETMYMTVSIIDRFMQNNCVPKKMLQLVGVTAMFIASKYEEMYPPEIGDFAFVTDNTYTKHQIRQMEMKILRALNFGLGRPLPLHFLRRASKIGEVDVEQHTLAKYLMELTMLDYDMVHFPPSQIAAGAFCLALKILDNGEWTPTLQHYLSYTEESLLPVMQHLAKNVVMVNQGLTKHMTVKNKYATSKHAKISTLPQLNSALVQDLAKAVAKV
Chain of CDK9/CycT (P50750 whole entry): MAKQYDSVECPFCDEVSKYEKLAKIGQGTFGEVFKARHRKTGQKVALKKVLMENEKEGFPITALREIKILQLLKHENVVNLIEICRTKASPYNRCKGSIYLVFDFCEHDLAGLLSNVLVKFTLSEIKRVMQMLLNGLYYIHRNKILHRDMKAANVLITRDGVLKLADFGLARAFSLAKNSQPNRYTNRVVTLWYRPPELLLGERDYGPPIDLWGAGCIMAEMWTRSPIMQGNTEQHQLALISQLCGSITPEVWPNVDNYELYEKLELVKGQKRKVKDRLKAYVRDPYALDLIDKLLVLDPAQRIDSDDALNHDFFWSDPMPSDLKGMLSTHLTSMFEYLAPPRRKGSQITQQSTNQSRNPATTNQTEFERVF
Chain of CDK9/CycT (O60563 whole entry partner): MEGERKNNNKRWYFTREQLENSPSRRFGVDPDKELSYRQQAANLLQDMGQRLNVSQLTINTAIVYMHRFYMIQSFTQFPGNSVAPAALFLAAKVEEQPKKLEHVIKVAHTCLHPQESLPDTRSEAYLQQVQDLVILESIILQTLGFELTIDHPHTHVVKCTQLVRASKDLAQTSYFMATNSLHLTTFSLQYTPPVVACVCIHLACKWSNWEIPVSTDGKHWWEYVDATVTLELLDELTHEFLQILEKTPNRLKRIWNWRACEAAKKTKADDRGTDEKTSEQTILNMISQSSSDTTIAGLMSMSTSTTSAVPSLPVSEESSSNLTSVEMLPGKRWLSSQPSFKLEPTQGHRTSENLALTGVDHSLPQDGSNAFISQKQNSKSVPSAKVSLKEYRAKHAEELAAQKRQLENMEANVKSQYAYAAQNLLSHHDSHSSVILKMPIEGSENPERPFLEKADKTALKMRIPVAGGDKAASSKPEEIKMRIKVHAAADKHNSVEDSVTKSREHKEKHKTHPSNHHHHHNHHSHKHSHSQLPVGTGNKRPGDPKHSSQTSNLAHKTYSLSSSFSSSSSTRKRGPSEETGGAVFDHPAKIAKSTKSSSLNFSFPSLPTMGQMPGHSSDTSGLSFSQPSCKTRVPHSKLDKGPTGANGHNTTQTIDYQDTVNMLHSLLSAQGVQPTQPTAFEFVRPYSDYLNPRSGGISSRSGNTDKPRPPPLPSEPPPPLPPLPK

With `Cc1cnn2c(N[C@H]3CC[C@H](N)C3)cc(C(C3CC3)C3CC3)nc12` [Compound Z-9], the IC50 was 1.55 µM at CDK2/CycA, 1.04 µM on CDK1/CycB and 0.008 µM against CDK9/CycT. In data set [1], the AUC(0-t) is 7860 ng·h/mL. The Cmax in data set [1] came out at 740 ng/mL.
On to `C[C@H](c1cc(N[C@H]2CC[C@H](N)C2)n2nccc2n1)C1CCC1` [Compound Z-11-P1], for which, in data set [1], the AUC(0-t) turned out to be 2960 ng·h/mL and the Cmax was 379 ng/mL.
Consider `Cc1cnn2c(N[C@H]3CC[C@H](N)C3)cc([C@@H](C)C3CC3)nc12` [Compound Z-32-P2], for which the IC50 came to 6.82 µM on CDK2/CycA, 8.22 µM on CDK1/CycB and 0.056 µM against CDK9/CycT. For the same compound, the AUC(0-t) in data set [1] is 9410 ng·h/mL. The Cmax in data set [1] amounted to 696 ng/mL.
In the case of `Cc1cnn2c(N[C@H]3CC[C@H](N)C3)cc(CC3CCC3)nc12` [Compound Z-51], the half-maximal inhibitory concentration (IC50) worked out at 7.75 µM against CDK2/CycA, 7.76 µM at CDK1/CycB and 0.065 µM against CDK9/CycT.
The like results for `Cc1cnn2c(N[C@H]3CC[C@H](N)C3)cc(CC3CC3)nc12` [Compound Z-52] were, in that order, 6.15 µM, 7.15 µM and 0.032 µM.
The like results for `N[C@H]1CC[C@H](Nc2cc(C(F)C3CC3)nc3ccnn23)C1` (stereo partly shown) [Compound Z-53] were, in that order, above 10 µM, 4.86 µM and 0.047 µM.
Consider `N[C@H]1CC[C@H](Nc2cc(CC3CC3)nc3c(F)cnn23)C1` [Compound Z-54], for which the IC50 against CDK2/CycA is 2.65 µM; at CDK1/CycB, 2.16 µM; at CDK9/CycT it was 0.016 µM.
For the compound `N[C@H]1CC[C@H](Nc2cc(CC3CC3)nc3c(Cl)cnn23)C1` [Compound Z-55], the figures for the IC50 at CDK2/CycA, at CDK1/CycB and on CDK9/CycT were 1.91 µM, 1.94 µM and 0.015 µM, respectively.
With `C=CC(C)(C)c1cc(N[C@H]2CC[C@H](N)C2)n2ncc(Cl)c2n1` [Compound Z-56], the IC50 on CDK2/CycA amounted to 3.78 µM; at CDK1/CycB, 2.48 µM; against CDK9/CycT it was 0.013 µM. The AUC(0-t) in data set [1] came to 6090 ng·h/mL. The Cmax in data set [1] was 409 ng/mL.
On to `C=CCC(C)(C)c1cc(N[C@H]2CC[C@H](N)C2)n2nccc2n1` [Compound Z-57], for which the IC50 on CDK2/CycA was above 10 µM; at CDK1/CycB, 4.97 µM; on CDK9/CycT, 0.058 µM.
The like results for `C=CC(C)(C)c1cc(N[C@H]2CC[C@H](N)C2)n2ncc(F)c2n1` [Compound Z-58] were, in that order, above 10 µM, 5.31 µM and 0.02 µM.
On to `C=Cc1cnn2c(N[C@H]3CC[C@H](N)C3)cc(C(C)C3CC3)nc12` (stereo partly shown) [Compound Z-60], for which the IC50 worked out at 3.2 µM on CDK2/CycA, 2.49 µM against CDK1/CycB and 0.024 µM against CDK9/CycT.
Turning to `C[C@H](c1cc(N[C@H]2C[C@H](N)C2)n2nccc2n1)C1CC1` [Compound Z-62-P1], the results for the IC50 on CDK2/CycA, on CDK1/CycB and at CDK9/CycT were 1.97 µM, 1.71 µM and 0.01 µM, respectively. In addition, the AUC(0-t) in data set [1] is 2060 ng·h/mL. In addition, the Cmax in data set [1] came to 786 ng/mL.
As to `C[C@@H](c1cc(N[C@H]2C[C@H](N)C2)n2nccc2n1)C1CC1` [Compound Z-62-P2], the half-inhibitory concentration (IC50) at CDK2/CycA was above 10 µM; at CDK1/CycB it was 1.82 µM; at CDK9/CycT it was 0.024 µM.
With `CC(c1cc(N[C@H]2C[C@H](N)C2)n2nccc2n1)C1CC1` (stereo partly shown) [Compound Z-62], the half-maximal inhibitory concentration (IC50) against CDK2/CycA came out at 4.72 µM; against CDK1/CycB, 1.54 µM; against CDK9/CycT, 0.017 µM.
The like results for `CC(=O)N[C@H]1CC[C@H](Nc2cc(C(C)C3CC3)nc3c(Cl)cnn23)C1` (stereo partly shown) [Compound Z-63] were, in that order, 0.278 µM, 0.84 µM and 0.014 µM.
As to `CC(=N)N[C@H]1CC[C@H](Nc2cc(C(C)C3CC3)nc3c(Cl)cnn23)C1` (stereo partly shown) [Compound Z-64], the IC50 amounted to 3.46 µM against CDK2/CycA, 2.31 µM on CDK1/CycB and 0.015 µM against CDK9/CycT.
The like results for `CC(c1cc(N[C@H]2CC[C@H](NC(=N)N)C2)n2ncc(Cl)c2n1)C1CC1` (stereo partly shown) [Compound Z-65] were, in that order, 2.3 µM, 1.24 µM and 0.019 µM.
As to `CC(=N)N[C@H]1CC[C@H](Nc2cc(C(C3CC3)C3CC3)nc3c(Cl)cnn23)C1` [Compound Z-66], the results for the IC50 on CDK2/CycA, at CDK1/CycB and against CDK9/CycT were 0.332 µM, 0.995 µM and 0.018 µM, respectively.
The corresponding values for `CCC(c1cc(N[C@H]2CC[C@H](NC(=N)N)C2)n2nccc2n1)C1CC1` (stereo partly shown) [Compound Z-67] are above 10 µM, 4.59 µM and 0.044 µM.
The corresponding values for `CC(=N)N[C@H]1CC[C@H](Nc2cc(C(C3CC3)C3CC3)nc3c(C(F)(F)F)cnn23)C1` [Compound Z-68] are 4.68 µM, 3.47 µM and 0.025 µM.
In the case of `CCC(c1cc(N[C@H]2CC[C@H](NC(C)=N)C2)n2nccc2n1)C1CC1` (stereo partly shown) [Compound Z-69], the IC50 on CDK2/CycA is above 10 µM; on CDK1/CycB, above 10 µM; against CDK9/CycT it was 0.058 µM.
On to `N[C@H]1CC[C@H](Nc2cc(C(F)C3CCC3)nc3ccnn23)C1` (stereo partly shown) [Compound Z-70], for which the IC50 was 3.88 µM at CDK2/CycA, 2.26 µM against CDK1/CycB and 0.023 µM at CDK9/CycT.
The corresponding values for `CC(c1cc(N[C@H]2CC[C@H](NC(=N)N)C2)n2ncc(F)c2n1)C1CC1` (stereo partly shown) [Compound Z-71] are 4.53 µM, 1.88 µM and 0.028 µM.
The like results for `CC(=N)N[C@H]1CC[C@H](Nc2cc(C(C)C3CC3)nc3c(F)cnn23)C1` (stereo partly shown) [Compound Z-72] were, in that order, 6.57 µM, 4.89 µM and 0.02 µM.
Take `CC(=N)N[C@H]1CC[C@H](Nc2cc(C(C3CC3)C3CC3)nc3c(F)cnn23)C1` [Compound Z-73]: the IC50 against CDK2/CycA is 3.68 µM; against CDK1/CycB, 2.57 µM; at CDK9/CycT it was 0.018 µM.
In the case of `CC(c1cc(N[C@H]2C[C@@H](N)C2)n2nccc2n1)C1CC1` (stereo partly shown) [Compound Z-74], the results for the IC50 against CDK2/CycA, against CDK1/CycB and on CDK9/CycT were above 10 µM, above 10 µM and 0.417 µM, respectively.

In general, IC50 refers to the concentration at which inhibition is half-maximal. Low readings indicate greater potency, high ones weaker potency.
